# In patent publication US9708318B2, “Bicyclic heterocycles as FGFR4 inhibitors” (Incyte Corporation, priority 2015, dated 2017):
# Read-outs that look alike come from different tables or passages of the source.
# Tests used:
# FGFR3 enzyme = FGFR3 enzyme (Homo sapiens (Human), UniProt P22607); experiment: FGFR Enzymatic Assay (FRET peptide phosphorylation), FGFR3; assay type: biochemical; conditions: read-out: FGFR3 IC50
# Procedure: (§1) The inhibitor potency of the exemplified compounds was measured in an enzyme assay that measures peptide phosphorylation using FRET measurements to detect product formation. Inhibitors were serially diluted in DMSO and a volume of 0.5 μL was transferred to the wells of a 384-well plate.
# (§2) GraphPad prism3 was used to analyze the data.
# FGFR2 = FGFR2 (Homo sapiens (Human), UniProt P21802); experiment: FGFR Enzymatic Assay (FRET peptide phosphorylation), FGFR2; assay type: biochemical
# Procedure: as §1
# (§3) The enzymes were purchased from Millipore or Invitrogen.
# as §2
# FGFR1 = FGFR1 (Homo sapiens (Human), UniProt P11362); experiment: FGFR Enzymatic Assay (FRET peptide phosphorylation), FGFR1; conditions: FGFR1 IC50 (nM)
# FGFR4 = FGFR4 (Homo sapiens (Human), UniProt P22455); experiment: FGFR Enzymatic Assay (FRET peptide phosphorylation), FGFR4; assay type: biochemical
# Procedure: as §1, §3, §2
# [1] = pre-incubated for 5 to 10 minutes
# Chain of FGFR2 (P21802 22-821): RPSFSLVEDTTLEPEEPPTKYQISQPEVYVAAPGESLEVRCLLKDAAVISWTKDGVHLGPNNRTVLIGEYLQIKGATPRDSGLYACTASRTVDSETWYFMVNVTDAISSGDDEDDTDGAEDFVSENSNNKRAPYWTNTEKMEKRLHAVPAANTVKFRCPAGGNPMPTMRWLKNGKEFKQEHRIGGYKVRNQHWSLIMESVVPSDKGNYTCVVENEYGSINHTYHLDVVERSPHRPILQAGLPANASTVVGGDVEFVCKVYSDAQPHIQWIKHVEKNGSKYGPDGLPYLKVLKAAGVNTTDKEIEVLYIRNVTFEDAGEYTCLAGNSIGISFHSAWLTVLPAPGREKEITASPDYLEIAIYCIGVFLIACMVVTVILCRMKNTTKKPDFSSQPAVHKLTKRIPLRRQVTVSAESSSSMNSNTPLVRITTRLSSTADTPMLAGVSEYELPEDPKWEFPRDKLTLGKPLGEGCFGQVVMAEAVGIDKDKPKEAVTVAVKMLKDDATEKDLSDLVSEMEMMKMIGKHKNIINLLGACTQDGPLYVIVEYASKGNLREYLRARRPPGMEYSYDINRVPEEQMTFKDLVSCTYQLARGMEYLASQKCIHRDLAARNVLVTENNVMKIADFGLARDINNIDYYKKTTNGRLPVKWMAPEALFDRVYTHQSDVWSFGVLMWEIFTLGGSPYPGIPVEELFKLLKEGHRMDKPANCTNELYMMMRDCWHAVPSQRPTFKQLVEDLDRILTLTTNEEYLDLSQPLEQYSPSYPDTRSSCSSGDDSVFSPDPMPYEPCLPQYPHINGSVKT
# Chain of FGFR4 (P22455 22-802): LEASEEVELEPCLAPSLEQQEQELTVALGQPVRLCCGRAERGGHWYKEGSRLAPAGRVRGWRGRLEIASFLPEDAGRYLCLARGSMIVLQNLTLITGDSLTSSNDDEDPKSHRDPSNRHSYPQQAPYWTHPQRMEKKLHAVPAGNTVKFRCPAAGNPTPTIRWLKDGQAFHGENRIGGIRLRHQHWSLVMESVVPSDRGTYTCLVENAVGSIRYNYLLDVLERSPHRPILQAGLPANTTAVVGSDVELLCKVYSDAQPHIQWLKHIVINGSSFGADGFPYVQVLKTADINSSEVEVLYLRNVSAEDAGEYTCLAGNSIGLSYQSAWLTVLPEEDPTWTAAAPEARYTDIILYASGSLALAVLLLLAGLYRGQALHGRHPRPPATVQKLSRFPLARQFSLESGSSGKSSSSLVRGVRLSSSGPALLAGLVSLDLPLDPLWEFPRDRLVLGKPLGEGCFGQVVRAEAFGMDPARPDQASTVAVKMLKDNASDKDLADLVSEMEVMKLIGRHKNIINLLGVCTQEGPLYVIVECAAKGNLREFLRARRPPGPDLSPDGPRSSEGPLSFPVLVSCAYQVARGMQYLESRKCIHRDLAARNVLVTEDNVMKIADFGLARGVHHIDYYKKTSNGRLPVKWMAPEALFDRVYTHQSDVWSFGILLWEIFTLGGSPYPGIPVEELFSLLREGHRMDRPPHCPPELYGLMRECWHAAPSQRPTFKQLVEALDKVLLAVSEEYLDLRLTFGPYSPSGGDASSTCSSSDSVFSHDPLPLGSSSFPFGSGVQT
# Chain of FGFR3 enzyme (P22607 23-806): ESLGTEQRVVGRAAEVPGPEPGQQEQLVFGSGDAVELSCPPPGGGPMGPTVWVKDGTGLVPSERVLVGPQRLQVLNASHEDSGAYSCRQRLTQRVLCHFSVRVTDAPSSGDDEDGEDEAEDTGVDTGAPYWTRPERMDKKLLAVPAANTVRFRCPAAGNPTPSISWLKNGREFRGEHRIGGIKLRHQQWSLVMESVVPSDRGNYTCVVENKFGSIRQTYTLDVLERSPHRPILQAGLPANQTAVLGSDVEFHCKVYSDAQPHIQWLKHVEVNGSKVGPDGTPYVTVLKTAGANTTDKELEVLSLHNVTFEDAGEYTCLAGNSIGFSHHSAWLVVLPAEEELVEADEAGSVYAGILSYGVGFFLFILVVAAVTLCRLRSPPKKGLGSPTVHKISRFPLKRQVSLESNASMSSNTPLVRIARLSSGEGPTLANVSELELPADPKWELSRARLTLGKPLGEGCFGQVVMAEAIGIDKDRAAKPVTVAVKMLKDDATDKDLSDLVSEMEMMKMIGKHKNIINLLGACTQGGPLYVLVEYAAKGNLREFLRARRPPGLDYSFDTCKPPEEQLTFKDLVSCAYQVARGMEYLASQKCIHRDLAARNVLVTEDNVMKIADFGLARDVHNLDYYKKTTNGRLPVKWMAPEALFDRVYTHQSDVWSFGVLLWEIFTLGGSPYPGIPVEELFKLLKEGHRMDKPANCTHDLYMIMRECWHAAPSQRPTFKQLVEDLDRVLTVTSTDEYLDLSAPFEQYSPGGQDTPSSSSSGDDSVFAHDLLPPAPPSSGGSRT
# Chain of FGFR1 (P11362 22-822): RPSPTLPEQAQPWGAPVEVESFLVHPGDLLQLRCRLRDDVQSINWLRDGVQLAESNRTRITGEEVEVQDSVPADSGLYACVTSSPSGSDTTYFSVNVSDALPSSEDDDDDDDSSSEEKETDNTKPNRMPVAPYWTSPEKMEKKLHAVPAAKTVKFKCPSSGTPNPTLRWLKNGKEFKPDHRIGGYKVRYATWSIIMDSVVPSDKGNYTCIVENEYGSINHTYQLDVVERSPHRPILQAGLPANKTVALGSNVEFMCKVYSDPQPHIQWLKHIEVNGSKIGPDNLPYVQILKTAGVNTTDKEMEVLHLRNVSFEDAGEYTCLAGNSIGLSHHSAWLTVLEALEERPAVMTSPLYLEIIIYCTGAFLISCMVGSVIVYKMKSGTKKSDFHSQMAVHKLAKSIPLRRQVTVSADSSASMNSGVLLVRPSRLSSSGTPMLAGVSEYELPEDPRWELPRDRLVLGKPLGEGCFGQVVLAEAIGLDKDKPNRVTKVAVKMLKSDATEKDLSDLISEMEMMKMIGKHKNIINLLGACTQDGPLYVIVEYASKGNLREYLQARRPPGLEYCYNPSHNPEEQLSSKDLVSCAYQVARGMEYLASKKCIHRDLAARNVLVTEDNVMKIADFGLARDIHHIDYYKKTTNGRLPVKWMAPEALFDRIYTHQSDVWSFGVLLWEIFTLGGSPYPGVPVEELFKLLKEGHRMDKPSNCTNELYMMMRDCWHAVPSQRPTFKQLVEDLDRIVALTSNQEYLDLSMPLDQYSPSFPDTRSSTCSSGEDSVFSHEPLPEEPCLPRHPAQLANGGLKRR
smiles,measurement,setting,value
"COc1cc(OC)c(F)c(N2Cc3cnc(-c4cn(C)nc4C)cc3N(CCc3cnn(C)c3)C2=O)c1F [Example 114, 3-(2,6-difluoro-3,5-dimethoxyphenyl)-7-(1,3-dimethyl-1H-pyrazol-4-yl)-1-(2-(1-methyl-1H-pyrazol-4-yl)ethyl)-3,4-dihydropyrido[4,3-d]pyrimidin-2(1H)-one]",IC50,FGFR3 enzyme; pre-incubated for 4 hours,10 to 30 nM
same,IC50,FGFR2; pre-incubated for 4 hours,10 to 30 nM
"COc1cc(OC)c(F)c(N2Cc3cnc(-c4cn(CCN5CCOCC5)nc4C)cc3C3(CC3)C2=O)c1F [Example 52, 2′-(2,6-difluoro-3,5-dimethoxyphenyl)-6′-(3-methyl-1-(2-morpholinoethyl)-1H-pyrazol-4-yl)-1′H-spiro[cyclopropane-1,4′-[2,7]naphthyridin]-3′(2′H)-one]",IC50,FGFR3 enzyme; pre-incubated for 4 hours,< 10 nM
same,IC50,FGFR2; pre-incubated for 4 hours,10 to 30 nM
same,IC50,FGFR1; pre-incubated for 4 hours,30 to 200 nM
"COc1cc(OC)c(F)c(N2Cc3cnc(-c4cn(C)nc4C)cc3N(Cc3ccc(C#N)nc3)C2=O)c1F [Example 74, 5-((3-(2,6-difluoro-3,5-dimethoxyphenyl)-7-(1,3-dimethyl-1H-pyrazol-4-yl)-2-oxo-3,4-dihydropyrido[4,3-d]pyrimidin-1(2H)-yl)methyl)picolinonitrile]",IC50,FGFR3 enzyme; pre-incubated for 4 hours,[…]
same,IC50,FGFR4; pre-incubated for 4 hours,30 to 200 nM
same,IC50,FGFR1; pre-incubated for 4 hours,30 to 200 nM
"COc1cc(OC)c(F)c(N2Cc3cnc(-c4cn(C)nc4C)cc3N(c3cccc(C#N)c3)C2=O)c1F [Example 60, 3-(3-(2,6-difluoro-3,5-dimethoxyphenyl)-7-(1,3-dimethyl-1H-pyrazol-4-yl)-2-oxo-3,4-dihydropyrido[4,3-d]pyrimidin-1(2H)-yl)benzonitrile]",IC50,FGFR3 enzyme; pre-incubated for 4 hours,< 10 nM
"COc1ccc(CN2C(=O)N(c3c(F)c(OC)cc(OC)c3F)Cc3cnc(-c4cn(C)nc4C)cc32)cn1 [Example 59, 3-(2,6-difluoro-3,5-dimethoxyphenyl)-7-(1,3-dimethyl-1H-pyrazol-4-yl)-1-((6-methoxypyridin-3-yl)methyl)-3,4-dihydropyrido[4,3-d]pyrimidin-2(1H)-one]",IC50,FGFR3 enzyme; [1],10 to 30 nM
same,IC50,FGFR3 enzyme; pre-incubated for 4 hours,10 to 30 nM
same,IC50,FGFR2; [1],10 to 30 nM
same,IC50,FGFR2; pre-incubated for 4 hours,10 to 30 nM
"CCCn1cc(N2C(=O)N(c3c(F)c(OC)cc(OC)c3F)Cc3cnc(-c4cn(C)nc4C)cc32)cn1 [Example 132, 3-(2,6-difluoro-3,5-dimethoxyphenyl)-7-(1,3-dimethyl-1H-pyrazol-4-yl)-1-(1-propyl-1H-pyrazol-4-yl)-3,4-dihydropyrido[4,3-d]pyrimidin-2(1H)-one]",IC50,FGFR3 enzyme; pre-incubated for 4 hours,10 to 30 nM
same,IC50,FGFR2; pre-incubated for 4 hours,10 to 30 nM
"CCN1C(=O)N(c2c(F)c(OC)cc(OC)c2F)Cc2cnc(-c3ccc(C4(C#N)CCC4)nc3)cc21 [Example 27, 1-(5-(3-(2,6-difluoro-3,5-dimethoxyphenyl)-1-ethyl-2-oxo-1,2,3,4-tetrahydropyrido[4,3-d]pyrimidin-7-yl)pyridin-2-yl)cyclobutanecarbonitrile]",IC50,FGFR3 enzyme; pre-incubated for 4 hours,< 10 nM
same,IC50,FGFR2; pre-incubated for 4 hours,< 10 nM
"CCc1cc(CN2C(=O)N(c3c(F)c(OC)cc(OC)c3F)Cc3cnc(-c4cn(C)nc4C)cc32)no1 [Example 64, 3-(2,6-difluoro-3,5-dimethoxyphenyl)-7-(1,3-dimethyl-1H-pyrazol-4-yl)-1-((5-ethylisoxazol-3-yl)methyl)-3,4-dihydropyrido[4,3-d]pyrimidin-2(1H)-one]",IC50,FGFR3 enzyme; pre-incubated for 4 hours,< 10 nM
same,IC50,FGFR2; pre-incubated for 4 hours,10 to 30 nM
"COc1cc(OC)c(F)c(N2Cc3cnc(-c4cn(C)nc4C)cc3N(C)C2=O)c1F [Example 76, 3-(2,6-difluoro-3,5-dimethoxyphenyl)-7-(1,3-dimethyl-1H-pyrazol-4-yl)-1-methyl-3,4-dihydropyrido[4,3-d]pyrimidin-2(1H)-one]",IC50,FGFR2; pre-incubated for 4 hours,30 to 200 nM
"COc1cc(OC)c(F)c(N2Cc3cnc(-c4cn(CCCN5CCOCC5)nc4C)cc3C3(CC3)C2=O)c1F [Example 146, 2′-(2,6-difluoro-3,5-dimethoxyphenyl)-6′-(3-methyl-1-(3-morpholinopropyl)-1H-pyrazol-4-yl)-1′H-spiro[cyclopropane-1,4′-[2,7]naphthyridin]-3′(2′H)-one]",IC50,FGFR3 enzyme; pre-incubated for 4 hours,< 10 nM
same,IC50,FGFR2; pre-incubated for 4 hours,10 to 30 nM
"CCN1C(=O)N(c2c(F)c(OC)cc(OC)c2F)Cc2cnc(-c3ccn(C)n3)cc21 [Example 141, 3-(2,6-difluoro-3,5-dimethoxyphenyl)-1-ethyl-7-(1-methyl-1H-pyrazol-3-yl)-3,4-dihydropyrido[4,3-d]pyrimidin-2(1H)-one]",IC50,FGFR3 enzyme; [1],< 10 nM
same,IC50,FGFR2; [1],10 to 30 nM
"COc1cc(OC)c(F)c(N2Cc3cnc(-c4ccn(C)n4)cc3N(c3ccc(C#N)cc3)C2=O)c1F [Example 142, 4-(3-(2,6-difluoro-3,5-dimethoxyphenyl)-7-(1-methyl-1H-pyrazol-3-yl)-2-oxo-3,4-dihydropyrido[4,3-d]pyrimidin-1(2H)-yl)benzonitrile]",IC50,FGFR3 enzyme; [1],10 to 30 nM
same,IC50,FGFR2; [1],30 to 200 nM
"COc1cc(OC)c(F)c(N2Cc3cnc(-c4cn(C)nc4C)cc3N(c3ccc4c(c3)C(=O)N(C)C4)C2=O)c1F [Example 120, 3-(2,6-difluoro-3,5-dimethoxyphenyl)-7-(1,3-dimethyl-1H-pyrazol-4-yl)-1-(2-methyl-3-oxoisoindolin-5-yl)-3,4-dihydropyrido[4,3-d]pyrimidin-2(1H)-one]",IC50,FGFR3 enzyme; [1],10 to 30 nM
same,IC50,FGFR2; [1],10 to 30 nM
"COc1cc(OC)c(F)c(N2Cc3cnc(-c4cnn(C)c4)cc3N(c3ccc(C#N)cc3)C2=O)c1F [Example 144, 4-(3-(2,6-difluoro-3,5-dimethoxyphenyl)-7-(1-methyl-1H-pyrazol-4-yl)-2-oxo-3,4-dihydropyrido[4,3-d]pyrimidin-1(2H)-yl)benzonitrile]",IC50,FGFR3 enzyme; [1],10 to 30 nM
same,IC50,FGFR2; [1],10 to 30 nM
"COc1cc(OC)c(F)c(N2Cc3cnc(-c4cn(C)nc4C)cc3N(Cc3cnco3)C2=O)c1F [Example 80, 3-(2,6-difluoro-3,5-dimethoxyphenyl)-7-(1,3-dimethyl-1H-pyrazol-4-yl)-1-(oxazol-5-ylmethyl)-3,4-dihydropyrido[4,3-d]pyrimidin-2(1H)-one]",IC50,FGFR2; pre-incubated for 4 hours,10 to 30 nM
"CCN1C(=O)N(c2c(F)c(OC)cc(OC)c2F)Cc2cnc(-c3cn(Cc4cccnc4)nc3C)cc21 [Example 50, 3-(2,6-difluoro-3,5-dimethoxyphenyl)-1-ethyl-7-(3-methyl-1-(pyridin-3-ylmethyl)-1H-pyrazol-4-yl)-3,4-dihydropyrido[4,3-d]pyrimidin-2(1H)-one]",IC50,FGFR1; pre-incubated for 4 hours,30 to 200 nM
"COc1cc(OC)c(F)c(N2Cc3cnc(-c4cnn(C5CN(S(C)(=O)=O)C5)c4)cc3C3(CC3)C2=O)c1F [Example 55, 2′-(2,6-difluoro-3,5-dimethoxyphenyl)-6′-(1-(1-(methylsulfonyl)azetidin-3-yl)-1H-pyrazol-4-yl)-1′H-spiro[cyclopropane-1,4′-[2,7]naphthyridin]-3′(2′H)-one]",IC50,FGFR1; pre-incubated for 4 hours,10 to 30 nM
"COc1cc(OC)c(F)c(N2Cc3cnc(-c4cccnc4)cc3C3(CC3)C2=O)c1F [Example 9, 2′-(2,6-difluoro-3,5-dimethoxyphenyl)-6′-(pyridin-3-yl)-1′H-spiro[cyclopropane-1,4′-[2,7]naphthyridin]-3′(2′H)-one]",IC50,FGFR3 enzyme; [1],30 to 200 nM
same,IC50,FGFR3 enzyme; pre-incubated for 4 hours,10 to 30 nM
same,IC50,FGFR4; [1],10 to 30 nM
same,IC50,FGFR4; pre-incubated for 4 hours,10 to 30 nM
same,IC50,FGFR2; [1],10 to 30 nM
same,IC50,FGFR2; pre-incubated for 4 hours,30 to 200 nM
"COc1cc(OC)c(F)c(N2Cc3cnc(-c4cncc(NS(C)(=O)=O)c4)cc3C3(CC3)C2=O)c1F [Example 15, N-(5-(2′-(2,6-difluoro-3,5-dimethoxyphenyl)-3′-oxo-2′,3′-dihydro-1′H-spiro[cyclopropane-1,4′-[2,7]naphthyridine]-6′-yl)pyridin-3-yl)methanesulfonamide]",IC50,FGFR3 enzyme; [1],30 to 200 nM
same,IC50,FGFR3 enzyme; pre-incubated for 4 hours,30 to 200 nM
same,IC50,FGFR4; [1],< 10 nM
same,IC50,FGFR4; pre-incubated for 4 hours,< 10 nM
same,IC50,FGFR2; [1],30 to 200 nM
same,IC50,FGFR2; pre-incubated for 4 hours,30 to 200 nM
